# Source: ChEMBL document CHEMBL5321224, “Antimicrobial peptides: Structure, mechanism, and modification” (2023)
# Activity calls are given as the source filed them. The rule behind the calls is not given here.
# Tests used:
# Type in all cases: functional
# Pseudomonas aeruginosa [1] = test: Antimicrobial activity against Pseudomonas aeruginosa assessed as reduction of microbial growth incubated for 24 hrs
# Escherichia coli [2] = test: Antimicrobial activity against Escherichia coli assessed as reduction of microbial growth incubated for 24 hrs
# Staphylococcus aureus [3] = test: Antimicrobial activity against Staphylococcus aureus assessed as reduction of microbial growth incubated for 24 hrs
# Staphylococcus aureus [4] = test: Antimicrobial activity against Staphylococcus aureus assessed as reduction of microbial growth
# Escherichia coli [5] = test: Antimicrobial activity against Escherichia coli assessed as reduction of microbial growth
# Staphylococcus aureus [6] = test: Antimicrobial activity against Staphylococcus aureus assessed as reduction of microbial growth incubated for 18 to 24 hrs by microdilution method; conditions: time 18-24 hrs
# Escherichia coli [7] = test: Antimicrobial activity against Escherichia coli assessed as reduction of microbial growth incubated for 18 to 24 hrs by microdilution method; conditions: time 18-24 hrs
# Pseudomonas aeruginosa [8] = test: Antimicrobial activity against Pseudomonas aeruginosa assessed as reduction of microbial growth
# Pseudomonas aeruginosa [9] = test: Antimicrobial activity against Pseudomonas aeruginosa assessed as reduction of microbial growth incubated for 18 to 24 hrs by microdilution method; conditions: time 18-24 hrs
# Pseudomonas aeruginosa [10] = test: Antimicrobial activity against Pseudomonas aeruginosa KCTC 1637 measured after 18 hrs
# Pseudomonas aeruginosa [11] = test: Antimicrobial activity against Pseudomonas aeruginosa
# Staphylococcus aureus [12] = test: Antimicrobial activity against Staphylococcus aureus
# Escherichia coli [13] = test: Antimicrobial activity against Escherichia coli
# Staphylococcus aureus [14] = test: Antimicrobial activity against Staphylococcus aureus Cowan 1 assessed as reduction of microbial
# Pseudomonas aeruginosa [15] = test: Antimicrobial activity against Pseudomonas aeruginosa OT97 assessed as reduction of microbial
# Escherichia coli [16] = test: Antimicrobial activity against Escherichia coli D21 assessed as reduction of microbial growth; conditions: time 24 hrs
# Pseudomonas aeruginosa [17] = test: Antimicrobial activity against Pseudomonas aeruginosa measured after 18 hrs
# Escherichia coli [18] = test: Antimicrobial activity against Escherichia coli ATCC 33694 measured after 18 hrs
compound,measurement,setting,value
CC[C@H](C)[C@H](NC(=O)CN)C(=O)NCC(=O)N[C@@H](C)C(=O)N[C@H](C(=O)N[C@@H](CC(C)C)C(=O)N[C@@H](CCCCN)C(=O)N[C@H](C(=O)N[C@@H](CC(C)C)C(=O)N[C@H](C(=O)N[C@H](C(=O)NCC(=O)N[C@@H](CC(C)C)C(=O)N[C@@H](CCCCN)C(=O)N[C@@H](Cc1c[nH]c2ccccc12)C(=O)N[C@@H](CCCCN)C(=O)N[C@@H](CC(C)C)C(=O)N[C@@H](Cc1ccccc1)C(=O)N[C@@H](CCCCN)C(=O)N[C@@H](CCCCN)C(=O)N[C@H](C(=O)N[C@@H](CCC(=O)O)C(=O)N[C@@H](CCCCN)C(=O)N[C@H](C(=O)NCC(=O)N[C@@H](CCC(N)=O)C(=O)N[C@@H](CC(N)=O)C(=O)N[C@H](C(=O)N[C@@H](CCCNC(=N)N)C(=O)N[C@@H](CC(=O)O)C(=O)NCC(=O)N[C@H](C(=O)N[C@H](C(=O)N[C@@H](CCCCN)C(=O)N[C@@H](C)C(=O)O)[C@@H](C)CC)[C@@H](C)CC)[C@@H](C)CC)C(C)C)[C@@H](C)CC)[C@@H](C)O)[C@@H](C)O)C(C)C)C(C)C,LD,Pseudomonas aeruginosa [1],8 µM
same,LD,Escherichia coli [2],0.7 µM
same,LD,Staphylococcus aureus [3],5 µM
H-GIGKFLHSAKKFGKAFVGEIMNS-OH [MAGAININ 2],MIC,Staphylococcus aureus [4],inactive
same,MIC,Escherichia coli [5],1 µg/mL
same,MIC,Staphylococcus aureus [6],≥ 100 µg/mL
same,MIC,Escherichia coli [7],50 µg/mL
same,MIC,Pseudomonas aeruginosa [8],inactive
same,MIC,Pseudomonas aeruginosa [9],50 µg/mL
H-KWKKLLKKPLLKKLLKKL-NH2,LD,Pseudomonas aeruginosa [10],0.78 µM
H-KWKLFKKGIGAVLKV-OH,LD,Pseudomonas aeruginosa [11],15 µM
same,LD,Staphylococcus aureus [12],29 µM
same,LD,Escherichia coli [13],4 µM
H-KWKLFKKIEKVGQNIRDGGIGAVLKV-OH,LD,Pseudomonas aeruginosa [1],15 µM
same,LD,Escherichia coli [2],1 µM
same,LD,Staphylococcus aureus [3],600 µM
H-KWKLFKKIGAVLKVL-OH,LD,Pseudomonas aeruginosa [11],4 µM
same,LD,Staphylococcus aureus [12],2 µM
same,LD,Escherichia coli [13],1 µM
H-KWKLFKKIGIGAVLKVLK-OH,LD,Pseudomonas aeruginosa [11],3 µM
same,LD,Staphylococcus aureus [12],7 µM
same,LD,Escherichia coli [13],0.5 µM
H-KWKLFKKIGIGAVLKVLKTTGLPALI-OH,LD,Staphylococcus aureus [14],1 µM
same,LD,Pseudomonas aeruginosa [15],0.7 µM
same,LD,Escherichia coli [16],0.3 µM
H-KWKLFKKIGIGKFLHSAKKF-NH2,LD,Pseudomonas aeruginosa [17],1.56 µM
same,LD,Escherichia coli [18],6.25 µM
H-KWKLFKKVLKVLTTG-OH,LD,Pseudomonas aeruginosa [11],2 µM
same,LD,Staphylococcus aureus [12],8 µM
same,LD,Escherichia coli [13],0.5 µM
